# Results: patent US12697326B2, “Methods of treating hepatic encephalopathy” (SALIX PHARMACEUTICALS, INC., priority 2008, dated 2026)
# Where “and” joins values, the source holds several entries; their conditions need not be identical. Equal entries are not always repeated.
# How the values were obtained:
# [1] = test system: liver transplant patients with HE; assay: Chart review of 39 liver transplant patients with HE Conn scores of 2; type: in vivo, human; conditions: 24 lactulose, 15 rifaximin
# [2] = test system: Staphylococcus, Streptococcus, Enterococcus, and Enterobacteriaceae; conditions: cited from earlier work
# patients with HE = assay: Retrospective chart review of 145 patients with HE, lactulose then rifaximin; type: in vivo, human
# Excerpt: Total number of hospitalizations, duration of hospitalizations, HE endpoints, and cost of therapy were compared between the 2 treatment regimens.
# clinical = conditions: human, in vivo
# [3] = test system: hospitalization in subjects with HE; assay: Hospitalizations, second study; type: in vivo, human
# Excerpt: Normalizing for subject exposure, this represents a hospitalization rate of 0.60 event/PEY. A total of 59 were hospitalized due HE episodes (e.g., HE-caused). Normalizing for subject exposure, this represents an HE-caused hospitalization rate of 0.29 event/PEY. […] All subjects were capable of worsening over time, and 24/266 subjects (9.0%) did so by 1 or 2 grades.
# [4] = test system: all-cause hospitalization in subjects with HE; assay: All-cause hospitalization, first study; type: in vivo, human
# [5] = test system: Conn score (mental state grade) in subjects with HE; assay: Time to any increase from baseline in Conn score, first study; type: in vivo, human
# Excerpt: Measurements of change in mental status may be done, for example, by the Conn score (also known as the West Haven score). The Conn score has been widely used as a measure of mental state in HE studies and is based on the criteria of Parsons-Smith as modified by Conn. Asterixis will not be considered when assessing the subject's status using the Conn scoring criteria listed below.
# The scale used in the Conn scoring system is provided below. • Grade 0=No personality or behavioral abnormality detected • Grade 1=Trivial lack of awareness, euphoria or anxiety; shortened attention span; impairment of addition or subtraction • Grade 2=Lethargy; disorientation for time; obvious personality change; inappropriate behavior • Grade 3=Somnolence to semi-stupor, responsive to stimuli; confused; gross disorientation; bizarre behavior • Grade 4=Coma; unable to test mental state
# FIG. 11 illustrates time to any increase from baseline in Conn score by treatment group in the ITT population. Table 20 presents estimates of the proportions of subjects who had any increase in Conn score over the course of the Treatment Period and results of statistical analyses. Subjects who discontinued prior to experiencing an increase in Conn score and prior to completion of the 6-month treatment period were censored at the time of discontinuation.
# subjects with HE = assay: Treatment-emergent adverse events, first study; type: in vivo, human; conditions: rifaximin group
# Excerpt: A total of 79.9% of subjects (239 of 299) experienced TEAEs during the course of the study.
# [6] = any increase from baseline in Conn score, 550 mg BID, N = 140, Days >=168
# [7] = any increase from baseline in Conn score; 550 mg BID; N = 140; Days [0-28)
# [8] = any increase from baseline in Conn score; 550 mg BID; N = 140; Days [28-56)
# [9] = any increase from baseline in Conn score; 550 mg BID; N = 140; Days [56-84)
# [10] = any increase from baseline in Conn score; 550 mg BID; N = 140; Days [84-140)
# [11] = any increase from baseline in Conn score; 550 mg BID; N = 140; Days [140-168)
# [12] = first study, ITT, first increase in Conn score, N = 140, treatment interval 0 to <28 days
# [13] = first study, ITT, first increase in Conn score, N = 140, treatment interval 28 to <56 days
# [14] = first study, ITT, first increase in Conn score, N = 140, treatment interval 56 to <84 days
# [15] = first study, ITT, first increase in Conn score, N = 140, treatment interval 84 to <140 days
# [16] = first study, ITT, first increase in Conn score, N = 140, treatment interval 140 to <168 days
# [17] = first study, ITT, first increase in Conn score, N = 140, treatment interval ≥168 days
smiles,measurement,setting,value
CO[C@H]1/C=C/O[C@@]2(C)Oc3c(C)c(O)c4c(O)c(c5c(nc6cc(C)ccn65)c4c3C2=O)NC(=O)/C(C)=C\C=C\[C@H](C)[C@H](O)[C@@H](C)[C@@H](O)[C@@H](C)[C@H](OC(C)=O)[C@@H]1C [Rifaximin],hospitalizations reported for the group,[1],3
same,"in vitro activity against species of Staphylococcus, Streptococcus, Enterococcus, and Enterobacteriaceae",[2],active
same,patients with Conn scores of 3 or 4 at end of treatment period,patients with HE,6%
same,hospitalizations,patients with HE; lactulose 30 mL twice daily then rifaximin 400 mg 3 times/day,0.5
same,Cmax,clinical,52.2 ng/mL and 66.4 nM
same,all cause hospitalization rate,[3],0.60 event/PEY
same,subjects hospitalized due HE episodes (HE-caused),[3],59
same,subjects hospitalized for any cause (of 266),[3]; all rifaximin,133
same,subjects hospitalized for any cause,[3]; continuing rifaximin group,35
same,subjects hospitalized for any cause,[3]; new rifaximin group,98
same,reduction in risk of all-cause hospitalization compared with placebo,[4],30%
same,subjects with all-cause hospitalization (of 140),[4]; rifaximin group,46
same,all-cause hospitalization rate,"[4]; rifaximin group, normalized for exposure",0.90 events/PEY
same,Cumulative Occurrences of Events,[5]; [6],37
same,Occurrences of Events,[5]; [6],1
same,Survival,[5]; [6],0.7302
same,Cumulative Occurrences of Events,[5]; [7],17
same,Occurrences of Events,[5]; [7],17
same,Survival,[5]; [7],1.0000
same,Cumulative Occurrences of Events,[5]; [8],22
same,Occurrences of Events,[5]; [8],5
same,Survival,[5]; [8],0.8777
same,Cumulative Occurrences of Events,[5]; [9],31
same,Occurrences of Events,[5]; [9],9
same,Survival,[5]; [9],0.8407
same,Cumulative Occurrences of Events,[5]; [10],36
same,Occurrences of Events,[5]; [10],5
same,Survival,[5]; [10],0.7713
same,Cumulative Occurrences of Events,[5]; [11],36
same,Occurrences of Events,[5]; [11],0
same,Survival,[5]; [11],0.7302
same,Cummulative number of events,[5]; [12],17
same,Number of events,[5]; [12],17
same,Probability of no increase in Conn score,[5]; [12],1.0000
same,Cummulative number of events,[5]; [13],22
same,Number of events,[5]; [13],5
same,Cummulative number of events,[5]; [14],31
same,Number of events,[5]; [14],9
same,Cummulative number of events,[5]; [15],36
same,Number of events,[5]; [15],5
same,Cummulative number of events,[5]; [16],36
same,Number of events,[5]; [16],0
same,Cummulative number of events,[5]; [17],37
same,Number of events,[5]; [17],1
same,subjects with increases in Conn score (of 140),"[5]; first study, rifaximin group",37
same,"time to first increase in Conn scores vs placebo (FIG. 4, Kaplan Meier)",[5]; in vivo,increased time to the first increase in Conn scores
same,"TEAE ascites, subjects",subjects with HE,11.4%
same,"TEAE diarrhea, subjects",subjects with HE,10.7%
same,"TEAE dizziness, subjects",subjects with HE,12.9%
same,"TEAE fatigue, subjects",subjects with HE,12.1%
same,"TEAE headache, subjects",subjects with HE,10%
same,"TEAE nausea, subjects",subjects with HE,14.3%
same,"TEAE peripheral edema, subjects",subjects with HE,15%
